Laboratory results from US20100034839A1, “METHODS FOR TREATING VIRAL DISORDERS” (priority 2008, published 2010).
“Also recorded” adds a separate entry of the source.

Test system: CLIP^+ B cells and lymphocyte subsets in spleen and lymph nodes
Test: CpG-ODN (TLR9) induced chronic hyperimmune activation in B6.129 mice with or without peptide
Type: in vivo, mouse
Procedure: FIG. 14 depicts that administration of targeted peptide in combination with CpG-ODN reverses the inflammatory effects of TLR9 activation. FIG. 14a: B6.129 mice were injected with CpG-ODN, a TLR9 agonist without (black squares) or with VGV-hB (black circles). Total spleen cell recoveries (top panel) and lymph node cell recoveries (lower panel) at 24, 72, and 96 hours are reported. FIG. 14b: spleen cells from untreated B6.129 (upper left panel) mice, spleen cells from mice injected intraperitoneally with CpG-ODN for 48 hours (upper right panel), spleen cells from mice injected intraperitoneally with CpG-ODN+targeted peptide (VGV-hB) (lower left panel), or spleen cells from mice injected intraperitoneally with CpG-ODN+scrambled peptide (VGV-sP) (lower right panel), were harvested and stained using anti-mouse B220-PE Cy5 versus 15G4-FITC anti-mouse CLIP/I-Ab Cells were analyzed flow-cytometrically using two-dimensional dot plot analysis. FIGS. 14c & 14d: individual B6.129 animals were injected with CpG-ODN and one of three doses of peptide replacement, with either VGV-hB (FIG. 14c) or VGV-sB (FIG. 14d). As indicated, for each dose, four to six animals were injected with each of three doses, at 0.5, 5, and 50 μg per injection. Splenocytes were removed after 48 hours, stained using anti-mouse B220-PE versus 15G4-FITC anti-mouse CLIP/I-Ab. Cells were acquired and analyzed with flow cytometry, using two-dimensional dot plot analysis. Percentages of CLIP+ B cells were plotted using scatter plot analysis. The formula for the slope of each line is indicated in each of FIGS. 14c & 14d.
FIG. 15 depicts the effects of targeted peptides on the distribution of TLR activated lymphoid subsets of B cells, CD4+ T cells, CD8+ T cells, and on CD4+ T regulatory cells. FIG. 15a: B6.129 mice were injected with CpG-ODN without (squares) or with (circles) VGV-hB. Spleen (solid black symbols) and lymph nodes (open symbols) were harvested at 24, 72, and 96 hours, and stained using anti-mouse B220-PE versus 15G4-FITC anti-mouse CLIP/I-Ab. Data were plotted as percent CLIP+ B cells from either spleen or node. FIG. 15b: B6.129 mice were injected with CpG-ODN without (squares) or with (circles) VGV-hB. Spleen (solid black symbols) and lymph nodes (open symbols) were harvested at 24, 72, and 96 hours, and stained using anti-mouse CD8-PE. Data were plotted as percent CD8+ T cells from either spleen or node as indicated. FIG. 15c: B6.129 mice were injected with CpG-ODN without (squares) or with (circles) VGV-hB. Spleen (solid black symbols) and lymph nodes (open symbols) were harvested at 24, 72, and 96 hours, and stained using anti-mouse CD4 GK1.5-FITC. Data were plotted as percent CD4+ T cells from either spleen or node. FIG. 15d: B6.129 mice were injected with CpG-ODN without (squares) or with (circles) VGV-hB. Spleen (solid black symbols) and lymph nodes (open symbols) were harvested at 24, 72, and 96 hours, and stained using anti-mouse CD4 GK1.5-PE versus anti-mouse FoxP3-FITC. Data were plotted as percent CD4+ FoxP3+ T cells from either spleen or node.
FIG. 16 depicts that TLR activation and peptide reversal differentially affect cell death of lymphocyte subsets. FIG. 16a: B6.129 mice were injected with CpG-ODN without (solid black lines) or with VGV-hB (dashed lines). Cells were counted and viability was determined flow cytometrically. T cell viability 48 hours subsequent to CPG-ODN treatment alone is indicated by solid circles and solid black line; T cell viability, 48 hours after treatment with CpG-ODN and VGV-hB, is indicated by solid squares and dashed line. B cell viability, CpG-ODN treatment alone, is indicated by black x's on a solid black line; B cell viability after CpG-ODN and VGV-hB is indicated by solid black triangles and dashed lines. FIG. 16b: Ag-specific T cell hybridomas induce apoptosis B cells. FIG. 16c: Ag-specific T cell hybridomas induce apoptosis in resting and in CpG-ODN stimulated splenocytes, but not in antigen receptor engaged B cells. […]

[1] = VGV-hB in combination with TLR 9 stimulation, FIG. 16a

## FRIMAVLAS
24, 72, 96 hours, FIG. 15a
  effect of CpG-ODN on total cell numbers, absolute numbers of B cells and CLIP^+ B cell distribution between spleen and lymph node: reduced
CpG-ODN plus peptide intraperitoneally, 48 hours, FIG. 14b
  percent of CpG-induced CLIP^+ B cells in spleen: reversed the effects of CPG alone
CpG-ODN with VGV-hB
  CD8^+ T cells: promotes expansion of CD8^+ T cells
FIG. 15d, 15e, listed as VGV-hB
  CD4^+FoxP3^+ Tregs in the lymph nodes: reversible; also recorded: decreases in Tregs
[1]
  B cell death: increased B cell death
  number of live CD4^+ T cells: moderate increase in the number of live CD4^+ T cells
Dose titration of peptide per mouse, FIGS. 14c and 14d
  reversal of CpG-ODN activation incl. percent of CLIP^+ B cells from total spleen, peptide titration: reversed the effects of CpG-ODN activation
